Measurements from the supplement of paper PMC10307832.

Legend:
Assay in all cases: relative viability (nuclei count vs DMSO), 5 days (fraction); higher = more cells survive
[1] = compound: COc1cc2nc(N3CCCN(C)CC3)nc(NC3CCN(Cc4ccccc4)CC3)c2cc1OC + CS(=O)(=O)N1CCN(Cc2cc3nc(-c4cccc5[nH]ncc45)nc(N4CCOCC4)c3s2)CC1 [Pictilisib] (partner 1 µM)
In short: (§1)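 Relative viability divides the nuclei count in treated wells by that in vehicle wells. Lung cancer cell lines were seeded in 1536-well plates, dosed by pin tool the next day, and fixed and stained after 5 days in one step with final 0.05% Triton X-100, 1% formaldehyde and 1 ug/ml Hoechst. Dosing was a single drug or a fixed anchor-drug dose plus five library-drug doses (not always all listed) in √10 steps, and values are medians of duplicate plates imaged at 4×.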

[2] = compound: Cc1cc([C@@H](C)Nc2ccccc2C(=O)O)c2nc(N3CCOCC3)cc(=O)n2c1 [AZD6482] + COc1cc2c(Oc3ccc(NC(=O)C4(C(=O)Nc5ccc(F)cc5)CC4)cc3F)ccnc2cc1OCCCN1CCOCC1 [Foretinib] (partner 0.25 µM)
In short: as §1

[3] = compound: Cc1cc([C@@H](C)Nc2ccccc2C(=O)O)c2nc(N3CCOCC3)cc(=O)n2c1 [AZD6482] + N=C(N)NC(=N)NCCc1ccccc1 [Phenformin] (partner 250 µM)
In short: as §1

[4] = compound: Cc1cc([C@@H](C)Nc2ccccc2C(=O)O)c2nc(N3CCOCC3)cc(=O)n2c1 [AZD6482] + Nc1nc2[nH]cc(CCc3ccc(C(=O)N[C@@H](CCC(=O)O)C(=O)O)cc3)c2c(=O)[nH]1 [Pemetrexed] (partner 0.2 µM)
In short: as §1

In the case of UMC-11, the relative viability ([1]; first compound 0.2 µM) was 0.84, the relative viability ([1]; first compound 0.6325 µM) was 0.805 and the relative viability ([1]; first compound 2 µM) was 0.84. For the same cell line, the relative viability ([1]; first compound 6.325 µM) was 0.681, the relative viability ([2]; first compound 0.08 µM) was 1.01 and the relative viability ([2]; first compound 0.253 µM) was 0.988. For the same cell line, the relative viability ([2]; first compound 0.8 µM) was 0.997, the relative viability ([2]; first compound 2.53 µM) was 0.815 and the relative viability ([2]; first compound 8 µM) was 1.13. For the same cell line, the relative viability ([3]; first compound 0.08 µM) was 0.309, the relative viability ([3]; first compound 0.253 µM) was 0.292 and the relative viability ([3]; first compound 0.8 µM) was 0.324. The relative viability ([3]; first compound 2.53 µM) was 0.293, the relative viability ([3]; first compound 8 µM) was 0.255 and the relative viability ([4]; first compound 0.08 µM) was 0.752. It also gave a relative viability ([4]; first compound 0.253 µM) of 0.822, a relative viability ([4]; first compound 0.8 µM) of 0.811 and a relative viability ([4]; first compound 2.53 µM) of 0.633. The relative viability ([4]; first compound 8 µM) was 0.738.
